# In patent US10633348B2, “Methods to treat lymphoplasmacytic lymphoma” (Dana-Farber Cancer Institute, Inc., priority 2013, dated 2020):
# Like-named read-outs stand apart in the source and are kept apart here.
# Legend:
# Format in all cases: cell-based
# AGK = test system: AGK
# ATR = test system: ATR
# AurB = test system: AurB
# CASK = test system: CASK
# CDK4 = test system: CDK4
# CDK6 = test system: CDK6
# CK1g2 = test system: CK1g2
# CSK = test system: CSK
# DGKH = test system: DGKH
# FES = test system: FES
# IRE1 = test system: IRE1
# JAK1 domain2 = test system: JAK1 domain2
# KSR1, KSR2 = experiment: KiNativ kinase profiling in A375 cells; settings: Activation Loop, SEQ ID NO 70, 1.0 μM
# MAP2K3 = test system: MAP2K3
# MAP3K4 = test system: MAP3K4
# MARK4 = test system: MARK4
# MSK2 domain1 = test system: MSK2 domain1
# MST4, YSK1 = experiment: KiNativ kinase profiling in A375 cells; settings: Lys2, SEQ ID NO 114, 1.0 μM
# MYO3A, MYO3B = experiment: KiNativ kinase profiling in A375 cells; settings: Lys2, SEQ ID NO 115, 1.0 μM
# NEK7 = test system: NEK7
# NEK8 = test system: NEK8
# p38d, p38g = experiment: KiNativ kinase profiling in A375 cells; settings: Lys2, SEQ ID NO 130, 1.0 μM
# PHKG1 = test system: PHKG1
# PHKG2 = test system: PHKG2
# PIK3CD = test system: PIK3CD
# PKR = test system: PKR
# PRPK = test system: PRPK
# TBK1 = test system: TBK1
# TYK2 domain2 = test system: TYK2 domain2
# ULK1 = test system: ULK1
# Wnk1, Wnk2, Wnk3 = experiment: KiNativ kinase profiling in A375 cells; settings: Lys2, SEQ ID NO 194, 1.0 μM
# [1] = test system: 260 kinases in A375 cells; settings: 1.0 μM
# [2] = test system: WM patient primary lymphoplasmacytic cells (LPCs); experiment: Apoptosis analysis (Annexin V/Propidium iodide); settings: for Apoptosis (%): 24 hours
# Description: WM cells were treated with and without the compounds described herein. Cells were incubated at 37° C. with 0.01˜4 uM of the compounds described herein. Apoptosis analysis was performed using Annexin V/Propidium iodide staining with the Apoptosis Detection Kit I (BD Pharmingen). 1×10^6/well cells were treated in 24 well plates for ˜24 hours with inhibitors or corresponding controls. A minimum of 10,000 events were acquired using a BD™ FACSCanto II flow cytometer and analyzed with BD FACS DIVA Software.
# Apoptosis analysis of WM patient primary lymphoplasmacytic cells (LPCs) was preformed following A-5 and A-14 treatment of Bone marrow mononuclear cells (BMMC) from WM patients for 24 hours. Apoptosis analysis was performed using Annexin V/Propidium iodide staining with the Apoptosis Detection Kit I (BD Pharmingen) in CD19-APC-cy7 antibody (BD Pharmingen) gated LPCs population.
structure (smiles),measurement,setting,value
"CCN1CCN(Cc2ccc(NC(=O)c3ccc(C)c(Oc4cc(N)ncn4)c3)cc2C(F)(F)F)CC1 [(A-4), 3-((6-aminopyrimidin-4-yl)oxy)-N-(4-((4-ethylpiperazin-1-yl)methyl)-3-(trifluoromethyl)phenyl)-4-methylbenzamide]",inhibition of kinase labeling,AGK,−31.4%
same,inhibition of kinase labeling,ATR,23.0%
same,inhibition of kinase labeling,AurB,−51.1%
same,inhibition of kinase labeling,CASK,−28.1%
same,inhibition of kinase labeling,CDK4,17.4%
same,inhibition of kinase labeling,CDK6,13.1%
same,inhibition of kinase labeling,CK1g2,−9.1%
same,inhibition of kinase labeling,CSK,15.3%
same,inhibition of kinase labeling,DGKH,−6.3%
same,inhibition of kinase labeling,FES,89.1%
same,inhibition of kinase labeling,IRE1,−2.2%
same,inhibition of kinase labeling,JAK1 domain2,−6.2%
same,inhibition of kinase labeling,"KSR1, KSR2",−10.0%
same,inhibition of kinase labeling,MAP2K3,−1.0%
same,inhibition of kinase labeling,MAP3K4,19.2%
same,inhibition of kinase labeling,MARK4,2.9%
same,inhibition of kinase labeling,MSK2 domain1,−64.9%
same,inhibition of kinase labeling,"MST4, YSK1",4.6%
same,inhibition of kinase labeling,"MYO3A, MYO3B",−15.3%
same,inhibition of kinase labeling,NEK7,−7.2%
same,inhibition of kinase labeling,NEK8,−11.4%
same,inhibition of kinase labeling,"p38d, p38g",62.5%
same,inhibition of kinase labeling,PHKG1,−49.0%
same,inhibition of kinase labeling,PHKG2,15.2%
same,inhibition of kinase labeling,PIK3CD,2.2%
same,inhibition of kinase labeling,PKR,−28.4%
same,inhibition of kinase labeling,PRPK,−13.7%
same,inhibition of kinase labeling,TBK1,18.2%
same,inhibition of kinase labeling,TYK2 domain2,−18.1%
same,inhibition of kinase labeling,ULK1,−6.0%
same,inhibition of kinase labeling,"Wnk1, Wnk2, Wnk3",0.2%
"CCN1CCN(Cc2ccc(NC(=O)c3ccc(C)c(Oc4ccnc(Nc5cnn(C)c5)n4)c3)cc2C(F)(F)F)CC1 [(A-14), N-(4-((4-ethylpiperazin-1-yl)methyl)-3-(trifluoromethyl)phenyl)-4-methyl-3-((2-((1-methyl-1H-pyrazol-4-yl)amino)pyrimidin-4-yl)oxy)benzamide]",KiNativ inhibition,"[1]; AKT2, AKT3, ATP Loop, SEQ ID NO 204",−19.7%
same,KiNativ inhibition,"[1]; AMPKa1, AMPKa2, Lys2, SEQ ID NO 205",−17.5%
same,KiNativ inhibition,"[1]; AurA, AurB, AurC, ATP Loop, SEQ ID NO 211",−2.4%
same,KiNativ inhibition,"[1]; CDK11, CDK8, Lys2, SEQ ID NO 224",49.2%
same,KiNativ inhibition,"[1]; CK1g1, CK1g2, CK1g3, ATP Loop, SEQ ID NO 235",1.3%
same,KiNativ inhibition,"[1]; CK1d, CK1e, Lys2, SEQ ID NO 234",−9.3%
same,KiNativ inhibition,"[1]; JNK1, JNK2, JNK3, Lys2, SEQ ID NO 276",31.5%
same,KiNativ inhibition,"[1]; KSR1, KSR2, Activation Loop, SEQ ID NO 280",1.4%
same,KiNativ inhibition,"[1]; MAP2K1, MAP2K2, Lys1, SEQ ID NO 289",9.4%
same,KiNativ inhibition,"[1]; MAP2K1, MAP2K2, Lys2, SEQ ID NO 290",2.2%
same,KiNativ inhibition,"[1]; MAP3K2, MAP3K3, Lys2, SEQ ID NO 299",8.4%
same,KiNativ inhibition,"[1]; MARK2, MARK3, Lys2, SEQ ID NO 304",−15.6%
same,KiNativ inhibition,"[1]; MARK3, MARK4, Lys1, SEQ ID NO 306",−7.5%
same,KiNativ inhibition,"[1]; MAST1, MAST2, Lys2, SEQ ID NO 308",−24.8%
same,KiNativ inhibition,"[1]; MER, TYRO3, Activation Loop, SEQ ID NO 313",21.2%
same,KiNativ inhibition,"[1]; MST4, YSK1, Lys2, SEQ ID NO 325",−2.4%
same,KiNativ inhibition,"[1]; MYO3A, MYO3B, Lys2, SEQ ID NO 326",22.9%
same,KiNativ inhibition,"[1]; NEK6, NEK7, Lys2, SEQ ID NO 333",−1.8%
same,KiNativ inhibition,"[1]; PCTAIRE2, PCTAIRE3, Lys1, SEQ ID NO 346",72.9%
same,KiNativ inhibition,"[1]; PI4KA, PI4KAP2, ATP, SEQ ID NO 353",2.1%
same,KiNativ inhibition,"[1]; PKCa, PKCb, Lys2, SEQ ID NO 364",−86.4%
same,KiNativ inhibition,"[1]; ROCK1, ROCK2, Lys2, SEQ ID NO 377",−0.2%
same,KiNativ inhibition,"[1]; RSK1 domain1, RSK2 domain1, RSK3 domain1, Lys2, SEQ ID NO 379",−25.1%
same,KiNativ inhibition,"[1]; SRPK1, SRPK2, Lys1, SEQ ID NO 391",−38.7%
same,KiNativ inhibition,"[1]; TAO1, TAO3, Lys2, SEQ ID NO 396",87.1%
same,KiNativ inhibition,"[1]; Wnk1, Wnk2, Wnk3, Lys2, SEQ ID NO 406",−1.1%
same,KiNativ inhibition,"[1]; Wnk1, Wnk2, ATP Loop, SEQ ID NO 405",11.2%
same,KiNativ inhibition,"[1]; ZC1/HGK, ZC2/TNIK, ZC3/MINK, Lys2, SEQ ID NO 410",57.5%
same,KiNativ inhibition,"[1]; p38d, p38g, Lys2, SEQ ID NO 341",51.5%
same,Apoptosis (%),"[2]; Patient 5, 0.5 μM",39.24%
same,Apoptosis (%),"[2]; Patient 5, 1.0 μM",46.86%
same,Apoptosis (%),"[2]; Patient 6, 1.0 μM",20.88%
same,Apoptosis (%),"[2]; Patient 7, 0.5 μM",22.62%
same,Apoptosis (%),"[2]; Patient 7, 1.0 μM",31.51%
same,Apoptosis (%),"[2]; Patient 8, 0.5 μM",12.9%
same,Apoptosis (%),"[2]; Patient 8, 1.0 μM",31.58%
same,Apoptosis (%),"[2]; Patient 9, 0.2 μM",24.8%
same,Apoptosis (%),"[2]; Patient 9, 1.0 μM",43.7%
same,Apoptosis (%),"[2]; Patient 10, 0.2 μM",27.9%
same,Apoptosis (%),"[2]; Patient 10, 1.0 μM",52%
same,Apoptosis (%),"[2]; Patient 11, 0.2 μM",53.1%
same,Apoptosis (%),"[2]; Patient 11, 1.0 μM",71.8%
same,apoptosis compared with DMSO control,[2]; WM patient primary LPCs,induced significant apoptosis
